One series concerns HCMV TB40. Briefly: Drug combination with letermovir, plaque assay TB40, Bliss model. It counts as cell-based, human cytomegalovirus. The following applies: Human betaherpesvirus 5, read-out: EC50 of Compound 1 (Letermovir). The method, then: (§1) Drug combination and analysis: These experiments were performed as previously reported^40. The combination of GCV and each compound was tested using the pp28-luciferase. Briefly, 2×10^6 HFFs/plate were seeded in 96-well plates and infected with the pp28-luciferase Towne HCMV strain (MOI=1). First, a dose response curve was generated for each drug individually to determine its EC50. Then, drugs were combined at twice their EC50, diluted in DMEM with 4% FBS, followed by serial dilution and added together after infection. Luciferase activity of the combination and each drug individually was quantified at 72 hpi. The combination of letermovir and each of the new compounds was tested by the plaque assay using TB40. The same principle applied in this assay for the drug combination effect, and plaques were counted at 8 dpi. The Bliss model was used to calculate the effect of each drug combination on pp28-luciferase activity and plaque reduction. In this model, drug combination represents the product of two probabilistically independent events as described in the following equation^41.
(§2) [formula] Where D is the drug concentration, m is the slope, and EC50 is the effective concentration resulting in 50% virus inhibition. The combined effect of two inhibitors (Fu, fractional unaffected) is computed as the product of individual effects of the two inhibitors, Fu1 and Fu2. If the ratio of observed fold inhibition divided by the expected fold inhibition is greater than 1, the compounds are synergistic. If the ratio is less than 1, the combination is considered antagonistic, and if it equals to 1 the combination is additive.
Pattern of drug combination with GCV and letermovir: The effect of each compound alone or in combination with GCV or letermovir was tested in HCMV-infected HFFs. […] A ratio of observed fold inhibition divided by the expected fold inhibition of >1 was considered drug synergy, <1 as drug antagonism, and =1 as additive. For letermovir and its combination with each of the five compounds the EC50 was determined based on plaque assay. The combination of GCV and 2955 was also tested by plaque assay. All other combinations and Bliss coefficients were measured by pp28- luciferase.

The next series concerns HCMV. Nature of the series: Drug combination of GCV and 2955 by plaque assay, Bliss model. Type of series: cell-based, human cytomegalovirus. The settings on record: Human betaherpesvirus 5; combination experiment with NCGC2955, plaque assay; read-out: EC50 of Compound 1 (GCV). The method, then: as §1, with “In this model, drug combination represents the product of two probabilistically independent events as described in the following equation^41.” left out
(§3) Pattern of drug combination with GCV and letermovir: The effect of each compound alone or in combination with GCV or letermovir was tested in HCMV-infected HFFs. […] For letermovir and its combination with each of the five compounds the EC50 was determined based on plaque assay. […] All other combinations and Bliss coefficients were measured by pp28- luciferase.

The subject of another series is Epstein Barr Virus (EBV). Briefly: Inhibition of lytic EBV replication in Akata cells, real-time PCR of BALF5. Type of series: cell-based. The following applies: human gammaherpesvirus 4, IgG induction, real-time PCR at 48 hours, NA = Not active. As to the method: Inhibition of lytic Epstein Barr Virus (EBV) replication: Akata cells (0.5×10^6/well of 24-well plate) latently infected with EBV were induced with 100 μg/ml of goat antihuman IgG (Sigma). Compounds and GCV control were added to triplicate wells immediately after the addition of human IgG. Cells were collected 48 hours after lytic induction for DNA quantification. Cellular DNA was purified using Wizard SV Genomic Kit (Promega, Madison, WI). The effect of the compounds on lytic induction of EBV was analyzed by real-time PCR of the EBV DNA polymerase gene, BALF5^38.
(§4) Inhibition of other herpesviruses: Inhibition of herpes simplex 1 and 2 (HSV1, HSV2), Epstein Barr virus (EBV) and mouse CMV (MCMV) was tested with the five compounds. Plaque reductions assays were used for HSV1, HSV2 and MCMV. Inhibition of lytic EBV replication was measured by real-time PCR in AKATA cells following IgG induction. Only MLS8554 was active against HSV1, HSV2 and MCMV (Table 2).
On the technique in general: In qPCR the cycle at which signal appears reflects the starting amount.

Series [1] concerns Mouse CMV (MCMV) Smith strain. Nature of the series: Plaque assay, mouse CMV in MEFs. Type of series: cell-based, mouse cytomegalovirus. The settings on record: Murid betaherpesvirus 1; plaque reduction, MEFs; NA = Not active.
Text: (§5) Viruses and antiviral assays: A recombinant pp28-luciferase Towne HCMV strain expressing luciferase under the control of the UL99 (pp28) late promoter was reported to provide a highly-sensitive and reproducible reporter for drug screening^20. A GCV-resistant HCMV pp28-luciferase that contains a C607Y mutation in UL97 was reported^37. The HCMV TB40 strain was obtained from ATCC (VR-1578). Clinical isolates of Human Herpesvirus 1 and 2 (HSV1, HSV2) were collected from the Johns Hopkins Microbiology laboratory without identifiers that could link them to a specific patient. Mouse CMV (MCMV) Smith strain (ATCC VR-1399) was used for infection of MEFs.
(§6) Plaque reduction assay: HFFs were seeded into 12-well plates (2×10^5 cells/well) and infected with HCMV TB40 at approximately 100 plaques/well. After 90 min, media were aspirated, and DMEM containing 0.5% carboxymethyl-cellulose (CMC), 4% fetal bovine serum (FBS), and drugs were added into duplicate wells. Following incubation at 37° C. for 10-12 days the overlay was removed, and plaques were counted after crystal violet staining. For HSV1 and HSV2 replication in Vero cells, the adsorption time was 60 min and plaques were counted after 36 h. Plaque assays in MEFs were completed after 3 days.
as §4

For a further series, the system named is HSV2 clinical isolate. Briefly: Plaque reduction assay, HSV2 in Vero cells. It counts as cell-based, Human Herpesvirus 2. The settings on record: Human alphaherpesvirus 2, Vero, read-out: EC50—HSV2-C1 (μM).
Text: as §5, §6, §4
Background: Plaques are areas of infected cells; plaque reduction assays count them against a control.

Series [2] has as its system pp28-luciferase Towne HCMV. Briefly: Drug combination with GCV, pp28-luciferase Towne, Bliss model. Type of series: cell-based, human cytomegalovirus. The settings on record: Human betaherpesvirus 5, read-out: EC50 of Compound 1 (GCV), pp28-luciferase Towne, MOI=1, 72 hpi; one value per combination experiment. The method, then:
as §1, §2, §3

Another series has as its system HSV1 clinical isolate. Nature of the series: Plaque reduction assay, HSV1 in Vero cells. Type of series: cell-based, Human Herpesvirus 1. The settings on record: Human alphaherpesvirus 1, Vero, read-out: EC50—HSV1-C1 (μM).
Text: as §5, §6, §4

A short description of a further series: in vitro. The following applies: human. The method, then:
Cytotoxicity assay: MTT assay was performed as described by manufacturer's instructions (Sigma-Aldrich). Non-infected cells were treated with compounds for 72 h or 10 days (same time points of the antiviral assay), and 20 μL/well of MTT [3-(4, 5-Dimethyl-2-thiazolyl)-2, 5-diphenyl-2H-tetrazolium bromide], 5 mg/mL in phosphate buffered saline (PBS)] was added to each well. After shaking at 150 rpm for 5 min the plates were incubated at 37° C. for 2-3 h. Conversion of yellow solution to dark blue formazan by mitochondrial dehydrogenases of living cells was quantified by measuring absorbance at 560 nm.
HCMV inhibition was measured by luciferase activity of pp28-recombinant Towne and pp28 GCV-resistant Towne strains of HCMV (72 hpi) and by plaque reduction using HCMV Towne or TB40 (10 days). Viral protein expression was measured by Western blot.

For series [3], the system named is HCMV Towne entry into HFFs. Briefly: HCMV entry, indirect immunofluorescence assay for pp65. Type of series: cell-based. The settings on record: pretreatment 24 h: MLS8969 3 μM, Heparin 30 μM, GCV 5 μM; IFA 2 hpi. The method, then:
HCMV entry and indirect immunofluorescence assay: MLS8969, GCV and heparin control were used to determine inhibition of HCMV entry. Compounds were diluted in serum-free media and added to HFFs seeded on chamber slides 24 h prior to infection. After infection (MOI 1 or 0.1 PFU/cell) for 2 h, cells were fixed with 100% chilled methanol, blocked for 1 h with phosphate-buffered saline (PBS), 5% serum, 0.3% Triton X-100. Cells were then incubated with mouse monoclonal anti-pp65 antibody, 1:50 (Vector Laboratories, Burlingame, CA) at 37° C. in humidified chambers for 1 h, washed three times with TBST (0.1%), incubated with rhodamine-conjugated anti-mouse IgG, 1:500 (Sigma) at 37° C. in humidified chambers for 1 h and washed with TBST (0.1%). A drop of mount oil containing DAPI (Santa Cruz Biotechnology, Santa Cruz, CA) was added to the slides before visualization with a Zeiss ZI fluorescence microscope. Images were captured at 40× magnification.

Bounds are passed on as bounds.

The record followed here is patent US12691114B2, “Compositions for inhibition of herpesviruses” (The Medical College of Wisconsin, Inc., priority 2020, dated 2026).

In general, EC50 refers to the concentration needed to bring the measured effect to its halfway point. `COc1cccc(N2CCN(C3=Nc4c(F)cccc4[C@H](CC(=O)O)N3c3cc(C(F)(F)F)ccc3OC)CC2)c1` [Letermovir, letermovir, reference compound]: the EC50 in the series on HCMV TB40 was determined as 1.1 nM.
With `Nc1nc(O)c2ncn(COC(CO)CO)c2n1` [GCV, ganciclovir, reference compound], the EC50 in the series with HCMV stood at 770 ± 80 nM; in the series with Epstein Barr Virus (EBV) it was 5.2 ± 0.4 µM; in [1], 960 ± 100 nM; in the series on HSV2 clinical isolate, 0.58 µM; in series [2], 1330 nM; in the series on HSV1 clinical isolate, 0.04 µM. For the same compound, the CC50 in “in vitro” was more than 200 µM. Besides, in series [3], the “inhibition of HCMV entry (pp65 nuclear staining), in words” value is given as “did not affect pp65 nuclear staining”.
In the case of Heparin, the “inhibition of HCMV entry (pp65 nuclear staining), in words” value in series [3] is given as “inhibited HCMV entry”.
